According to the supplement of paper PMC10733146:

Legend:
Assay in all cases: viability relative to DMSO control (fraction); higher = less drug effect (more viable cells)
Details in all cases: 48 h
[1] = test system: primary AML patient cells (S007)
How it was run: (§1)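 In 384-well plates with compounds pre-plated at five concentrations (one well per concentration), primary mononuclear tumour cells were plated at 4 × 10^4 cells per well. The cells came from blood or bone marrow by Ficoll isolation or from processed lymph node, and were used fresh or cryopreserved. Culture ran for 48 h at 37 °C and 5% CO2 in RPMI-1640 containing penicillin/streptomycin, L-glutamine and human serum. Viability was read as CellTiter-Glo luminescence, normalised to the median of 16 inner DMSO wells.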

[2] = test system: primary AML patient cells (S079)
How it was run: as §1

[3] = test system: primary AML patient cells (S027)
How it was run: as §1

[4] = test system: primary AML patient cells (S019)
How it was run: as §1

[5] = test system: primary T-NHL patient cells (S058)
How it was run: as §1

[6] = test system: primary AML patient cells (S071)
How it was run: as §1

[7] = test system: primary AML patient cells (S091)
How it was run: as §1

[8] = test system: primary MCL patient cells (S041)
How it was run: as §1

[9] = test system: primary T-PLL patient cells (S008)
How it was run: as §1

[10] = test system: primary AML patient cells (S002)
How it was run: as §1

[11] = test system: primary DLBCL patient cells (S049)
How it was run: as §1

[12] = test system: primary AML patient cells (S025)
How it was run: as §1

[13] = test system: primary AML patient cells (S037)
How it was run: as §1

[14] = test system: primary DLBCL patient cells (S076)
How it was run: as §1

[15] = test system: primary AML patient cells (S072)
How it was run: as §1

[16] = test system: primary DLBCL patient cells (S082)
How it was run: as §1

[17] = test system: primary AML patient cells (S089)
How it was run: as §1

[18] = test system: primary AML patient cells (S009)
How it was run: as §1

Cc1sc2c(c1C)C(c1ccc(Cl)cc1)=N[C@@H](CC(=O)Nc1ccc(O)cc1)c1nnc(C)n1-2 [OTX015]
viability ([1]; 0.016 µM): 1.16
viability ([1]; 0.08 µM): 1.08
viability ([1]; 0.4 µM): 0.561
viability ([1]; 2 µM): 0.335
viability ([1]; 10 µM): 0.24
viability ([2]; 0.016 µM): 0.812
viability ([2]; 0.08 µM): 0.757
viability ([2]; 0.4 µM): 0.568
viability ([2]; 2 µM): 0.44
viability ([2]; 10 µM): 0.403
viability ([3]; 0.016 µM): 0.93
viability ([3]; 0.08 µM): 0.894
viability ([3]; 0.4 µM): 0.73
viability ([3]; 2 µM): 0.536
viability ([3]; 10 µM): 0.408
viability ([4]; 0.016 µM): 1.14
viability ([4]; 0.08 µM): 1.12
viability ([4]; 0.4 µM): 1.08
viability ([4]; 2 µM): 0.985
viability ([4]; 10 µM): 0.965
viability ([5]; 0.016 µM): 1.09
viability ([5]; 0.08 µM): 0.875
viability ([5]; 0.4 µM): 0.764
viability ([5]; 2 µM): 0.576
viability ([5]; 10 µM): 0.591
viability ([6]; 0.016 µM): 0.988
viability ([6]; 0.08 µM): 1.08
viability ([6]; 0.4 µM): 0.994
viability ([6]; 2 µM): 0.829
viability ([6]; 10 µM): 0.722
viability ([7]; 0.016 µM): 0.741
viability ([7]; 0.08 µM): 0.478
viability ([7]; 0.4 µM): 0.276
viability ([7]; 2 µM): 0.25
viability ([7]; 10 µM): 0.254
viability ([8]; 0.016 µM): 1.01
viability ([8]; 0.08 µM): 1.01
viability ([8]; 0.4 µM): 0.866
viability ([8]; 2 µM): 0.806
viability ([8]; 10 µM): 0.708
viability ([9]; 0.016 µM): 1.02
viability ([9]; 0.08 µM): 1.01
viability ([9]; 0.4 µM): 0.983
viability ([9]; 2 µM): 0.996
viability ([9]; 10 µM): 1.02
viability ([10]; 0.016 µM): 0.853
viability ([10]; 0.08 µM): 0.565
viability ([10]; 0.4 µM): 0.396
viability ([10]; 2 µM): 0.315
viability ([10]; 10 µM): 0.317
viability ([11]; 0.016 µM): 1.02
viability ([11]; 0.08 µM): 0.891
viability ([11]; 0.4 µM): 0.482
viability ([11]; 2 µM): 0.2
viability ([11]; 10 µM): 0.119
viability ([12]; 0.016 µM): 0.87
viability ([12]; 0.08 µM): 0.971
viability ([12]; 0.4 µM): 0.767
viability ([12]; 2 µM): 0.629
viability ([12]; 10 µM): 0.549
viability ([13]; 0.016 µM): 1.11
viability ([13]; 0.08 µM): 0.851
viability ([13]; 0.4 µM): 1
viability ([13]; 2 µM): 0.716
viability ([13]; 10 µM): 0.97
viability ([14]; 0.016 µM): 1.05
viability ([14]; 0.08 µM): 0.942
viability ([14]; 0.4 µM): 0.802
viability ([14]; 2 µM): 0.699
viability ([14]; 10 µM): 0.6
viability ([15]; 0.016 µM): 0.806
viability ([15]; 0.08 µM): 0.826
viability ([15]; 0.4 µM): 0.604
viability ([15]; 2 µM): 0.375
viability ([15]; 10 µM): 0.364
viability ([16]; 0.016 µM): 0.872
viability ([16]; 0.08 µM): 0.674
viability ([16]; 0.4 µM): 0.244
viability ([16]; 2 µM): 0.116
viability ([16]; 10 µM): 0.0851
viability ([17]; 0.016 µM): 0.894
viability ([17]; 0.08 µM): 0.848
viability ([17]; 0.4 µM): 0.546
viability ([17]; 2 µM): 0.398
viability ([17]; 10 µM): 0.311
viability ([18]; 0.016 µM): 0.859
viability ([18]; 0.08 µM): 0.752
viability ([18]; 0.4 µM): 0.6
viability ([18]; 2 µM): 0.489
viability ([18]; 10 µM): 0.457
